# Measured values taken from PMC2879362, “Design of Group IIA Secreted/Synovial Phospholipase A2 Inhibitors: An Oxadiazolone Derivative Suppresses Chondrocyte Prostaglandin E2 Secretion” (PLoS ONE, 2010).
# Marks after values point to notes of the source that are not given here.
# What was measured:
# Assay type in all cases: cell-based, rabbit
# [1] = system: IL-1β-stimulated PGE2 secretion in articular chondrocytes; assay: IL-1β-stimulated PGE2 secretion in articular chondrocytes (EIA); settings: for C8 inhibitory effect (%inhibition) on PGE2 secretion: DMEM with 2% FCS, 20 h; for decrease of PGE2 production induced by IL-1β: IL-1β 20 h
# Protocol: We tested the effect of C8 on the IL-1β-stimulated secretion of PGE2 in chondrocytes. PGE2 synthesis takes place mainly in response to cell activation by IL-1β, and its generation accounts for many of the actions induced by this cytokine. In vitro, IL-1β induces the expression of COX-2 by chondrocytes, which results in increased PGE2 production. PGE2 release thus represents a powerful IL-1β- and PLA2-dependent inflammatory marker in our cell model. Chondrocytes were treated for 20 h with IL-1β alone or 1 h after the addition of C8. […] In DMEM alone, at concentrations of 0.31-, 0.62-, 0.94-, and 1.24-µM, C8 decreased the production of PGE2 induced by IL-1β by 59-, 58-, 74-, and 80-%, respectively (Fig. 4A). In DMEM supplemented with 0.1% BSA, at concentrations of 0.31-, 0.62-, 0.94-, 1.24-, 2.48-, and 4.96-µM, C8 decreased the production of PGE2 induced by IL-1β by 31-, 30-, 45-, 43-, 81-, and 92-%, respectively (Fig. 4B). In DMEM supplemented with 2% FCS, at concentrations of 0.31-, 0.62-, 0.94-, 1.24-, 2.48-, and 4.96-µM, C8 decreased the production of PGE2 induced by IL-1β by 26-, 48-, 49-, 54-, 68-, and 68-%, respectively (Fig. 4C). […] The effect of C8 was then evaluated at the extreme concentrations (0.31- and 4.96-µM) in DMEM supplemented with 2% FCS and containing decreasing (1-, 0.5-, and 0.25-ng/mL) IL-1β concentrations (Table 3). The anti-IL-1β inhibitory effect of C8 at 0.31 µM increases when IL-1β concentration decreases. […] This is probably due to the fact that at 4.96 µM, the inhibitory effect of C8 on IL-1β-induced PGE2 production is maximal. […] Thus, C8, but not C1, decreases the IL-1β-stimulated PGE2 secretion in a dose-dependent manner in the three culture medium compositions used.
# (§1) Articular chondrocytes were isolated from 5-week-old Fauve de Bourgogne female rabbits (CPA, Orleans, France) and cultured at the first passage in conditions avoiding cell dedifferentiation as previously described. Cells were cultured at 37°C in 12-well plates in Ham's F-12 medium containing 10% FCS, 20 IU/mL penicillin, and 20 µg/mL streptomycin (all from Invitrogen) until nearly confluent. Then medium was replaced with DMEM (Invitrogen) containing 20 IU/mL penicillin, and 20 µg/mL streptomycin and, if necessary, 0.1% fatty acid free BSA (Sigma) or 2% FCS. At this time the C8 compound dissolved in DMSO (Sigma) was added to the medium (the amount of DMSO was kept at 1‰ (v/v) in all the wells). 1 h after the addition of C8, IL-1β (PeproTech) was added to the medium. Consequently, chondrocytes were incubated for 20 h with IL-1β and for 21 h with C8.
# (§2) 20 h after the addition of IL-1β to the chondrocytes, culture media were collected, and aliquots were stored at −80°C until PGE2 and nitrite quantification. PGE2 concentration in culture media was determined by use of an enzyme immunoassay (EIA) kit (PGE2 EIA Kit-monoclonal; Cayman Chemical). Nitrite concentration was determined by a spectrophotometry method based on the Griess reaction. Briefly, 200 µL of culture medium or sodium nitrite (NaNO2, Merck) standard dilutions were mixed with 100 µL Griess reagent [0.5% (w/v) sulphanilic acid (Merck), 0.05% (w/v) N(1-naphtyl)ethylenediamine (Merck), 30% (v/v) acetic acid, 1.5 N HCl] and incubated for 10 min at 50°C. The absorbance was measured at 540 nm.
# [2] = system: IL-1β-stimulated NO secretion in articular chondrocytes; assay: IL-1β-stimulated NO (nitrite) secretion in articular chondrocytes (Griess)
# Protocol: We tested the effect of C8 on the IL-1β-stimulated secretion of NO in chondrocytes. NO is a mediator of immune and inflammatory responses. In vitro, IL-1β induces the expression of inducible NO synthase (iNOS) by chondrocytes, and consequently an increase in NO production. NO secretion, evaluated by nitrite concentration in the cell culture medium, represents a reliable IL-1β-dependent and PLA2-independent inflammatory marker in our cell model. Chondrocytes were treated for 20 h with IL-1β alone or 1 h after the addition of C8.
# as §1, §2
# COX-1 = assay: Western blot of COX-1 protein level in IL-1β-treated chondrocytes; settings: C8 0.31-1.24 µM in DMEM, IL-1β 20 h
# Protocol: As expected, COX-1 protein was detectable but COX-2 and iNOS proteins were undetectable in untreated control conditions (Fig. 6A). […] Consequently, the protein ratio of COX-1 to COX-2 was not modified by C8 (Fig. 6B). […] Cell lysates were centrifuged for 15 min at 14000 rpm at 4°C and supernatants were collected. Protein concentrations were determined by the Bradford method by use of the Protein Assay dye reagent (Bio-Rad). Protein extracts (20 µg) were size-separated by SDS-PAGE in a 10% (w/v) polyacrylamide gel and electroblotted to a nitrocellulose membrane. Equal protein loading and transfer was confirmed by staining the membrane with Ponceau Red [0.2% (w/v) in H2O:acetic acid 99∶1]. The membrane was sequentially incubated with antibodies against COX-1 (1∶200, Santa Cruz Biotechnology), COX-2 (1∶500, Santa Cruz Biotechnology), iNOS (1∶400, BD Biosciences) or α-tubulin (1∶100, Santa Cruz Biotechnology) and then with peroxidase-conjugated donkey anti-goat IgG (1∶20000) or donkey anti-rabbit IgG (1∶200, both Santa Cruz Biotechnology). Immunocomplexes were detected by an enhanced chemiluminescence kit (Amersham Bioscience). The membrane was stripped by incubation in 0.2 M NaOH between successive immunodetections. Semi-quantitative scanning densitometry involved use of the ImageJ program (NIH, USA).
compound,measurement,setting,value
O=c1[nH]c(Cc2ccc(OCCCCCOc3cc4ccccc4c4ccccc34)cc2)no1 [C8],C8 inhibitory effect (%inhibition) on PGE2 secretion,"[1]; C8 at 0.31 µM, IL-1β 0.25 ng/mL",67 %inhibition
same,C8 inhibitory effect (%inhibition) on PGE2 secretion,"[1]; C8 at 0.31 µM, IL-1β 0.5 ng/mL",60 ^* %inhibition
same,C8 inhibitory effect (%inhibition) on PGE2 secretion,"[1]; C8 at 4.96 µM, IL-1β 0.25 ng/mL",65 %inhibition
same,C8 inhibitory effect (%inhibition) on PGE2 secretion,"[1]; C8 at 4.96 µM, IL-1β 0.5 ng/mL",67 ^* %inhibition
same,C8 inhibitory effect (%inhibition) on PGE2 secretion,"[1]; C8 at 4.96 µM, IL-1β 1 ng/mL",68 ^*** %inhibition
same,decrease of PGE2 production induced by IL-1β,"[1]; DMEM + 0.1% BSA, C8 0.31 µM",31%
same,decrease of PGE2 production induced by IL-1β,"[1]; DMEM + 0.1% BSA, C8 0.62 µM",30%
same,decrease of PGE2 production induced by IL-1β,"[1]; DMEM + 0.1% BSA, C8 0.94 µM",45%
same,decrease of PGE2 production induced by IL-1β,"[1]; DMEM + 0.1% BSA, C8 1.24 µM",43%
same,decrease of PGE2 production induced by IL-1β,"[1]; DMEM + 0.1% BSA, C8 2.48 µM",81%
same,down-regulation of IL-1β-stimulated secretion of PGE2,"[1]; DMEM + 0.1% BSA, C8 4.96 µM",to the level of the control untreated condition
same,decrease of PGE2 production induced by IL-1β,"[1]; DMEM + 0.1% BSA, C8 4.96 µM",92%
same,decrease of PGE2 production induced by IL-1β,"[1]; DMEM + 2% FCS, C8 0.31 µM",26%
same,decrease of PGE2 production induced by IL-1β,"[1]; DMEM + 2% FCS, C8 0.62 µM",48%
same,decrease of PGE2 production induced by IL-1β,"[1]; DMEM + 2% FCS, C8 0.94 µM",49%
same,decrease of PGE2 production induced by IL-1β,"[1]; DMEM + 2% FCS, C8 1.24 µM",54%
same,decrease of PGE2 production induced by IL-1β,"[1]; DMEM + 2% FCS, C8 2.48 µM",68%
same,decrease of PGE2 production induced by IL-1β,"[1]; DMEM + 2% FCS, C8 4.96 µM",68%
same,down-regulation of IL-1β-stimulated secretion of PGE2,"[1]; DMEM + 2% FCS, C8 2.48 and 4.96 µM",to the level of the control untreated condition
same,decrease of PGE2 production induced by IL-1β,"[1]; DMEM alone, C8 0.31 µM",59%
same,decrease of PGE2 production induced by IL-1β,"[1]; DMEM alone, C8 0.62 µM",58%
same,decrease of PGE2 production induced by IL-1β,"[1]; DMEM alone, C8 0.94 µM",74%
same,decrease of PGE2 production induced by IL-1β,"[1]; DMEM alone, C8 1.24 µM",80%
same,inhibition of IL-1β-stimulated nitrite secretion,"[2]; DMEM + 0.1% BSA, IL-1β 20 h",did not significantly inhibit
same,decrease of IL-1β-induced nitrite production,"[2]; DMEM + 2% FCS, C8 1.24 µM",17%
same,decrease of IL-1β-induced nitrite production,"[2]; DMEM + 2% FCS, C8 2.48 µM",19%
same,decrease of IL-1β-induced nitrite production,"[2]; DMEM + 2% FCS, C8 4.96 µM",21%
same,inhibition of IL-1β-stimulated nitrite secretion,"[2]; DMEM + 2% FCS, C8 at 0.31, 0.62 and 0.94 µM",did not inhibit
same,inhibition of IL-1β-stimulated nitrite secretion,"[2]; DMEM medium alone, IL-1β 20 h",did not significantly inhibit
same,effect on COX-1 protein level,COX-1,did not alter
